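Step 1: Grow cells in 96-well plates. Step 2: Expose to compound for 48 hours at 5 concentrations. Step 3: Interpolate endpoints linearly; if unreached, use highest concentration. At the GI50, growth is halved. TGI marks complete inhibition of growth.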
What was measured:
Assay in all cases: NCI-60 cell line screen, 48 h
[1] = test system: ACHN renal
[2] = test system: UACC-257 melanoma
[3] = test system: MALME-3M melanoma
[4] = test system: T-47D breast
[5] = test system: SNB-19 CNS
[6] = test system: SK-MEL-28 melanoma
[7] = test system: SF-295 CNS
[8] = test system: EKVX NSCLC
[9] = test system: HT29 colon
[10] = test system: DU-145 prostate

Row | SMILES | GI50 [1] | TGI [1] | GI50 [2] | TGI [2] | GI50 [3] | TGI [3] | GI50 [4] | TGI [4] | GI50 [5] | TGI [5] | GI50 [6] | TGI [6] | GI50 [7] | TGI [7] | GI50 [8] | TGI [8] | GI50 [9] | TGI [9] | GI50 [10] | TGI [10]
1 | CNC(C)C(=O)N[C@H](C(=O)N1CCC[C@@H]1CN(CCc1ccccc1)C(=O)C(F)(F)F)[C@H](C)OCC#CC#CCO[C@H](C)[C@H](NC(=O)[C@H](C)NC)C(=O)N1CCC[C@H]1CN(CCc1ccccc1)C(=O)C(F)(F)F (some centres undefined) | 1.85 µM | 3.44 µM | 1.28 µM | 2.72 µM | 0.0115 µM | 0.716 µM | 1.64 µM | 3.3 µM | 1.81 µM | 3.43 µM | 1.54 µM | 2.96 µM | 1.31 µM | 2.84 µM | 1.63 µM | 3.34 µM | 0.465 µM | 1.53 µM | 1.56 µM | 3.05 µM
2 | O=C(CCCc1ccccn1)c1ccccc1 |  | > 100 µM |  | > 100 µM |  | > 100 µM |  | > 100 µM |  | > 100 µM |  | > 100 µM |  | > 100 µM |  | > 100 µM |  | > 100 µM |  | > 100 µM
3 | CCCCN(CCCC)CCCN=c1nc2c(c(N)n1-c1ccccc1)c(=S)n(-c1ccccc1)c(=S)n2-c1ccccc1 | 0.567 µM | 1.8 µM | 0.609 µM | 1.27 µM | 0.604 µM | 1.31 µM | 1.73 µM | 3.79 µM | 1.29 µM | 2.74 µM | 0.173 µM | 0.338 µM | 1.4 µM | 3 µM | 0.84 µM | 2.69 µM | 0.276 µM | 0.784 µM | 1.34 µM | 2.75 µM
4 | C#CCNC(=O)CC[C@]1(C)[C@H]2CC[C@@H]3[C@@H]([C@@](C)(O)CCC=C(C)C)CC[C@@]3(C)[C@]2(C)CC[C@H]1C(=C)C | 25.3 µM | > 100 µM | 68 µM | > 100 µM | 16.4 µM | 35 µM | 35 µM | > 100 µM | 56.1 µM | > 100 µM | 26.9 µM | 80 µM | 48.4 µM | > 100 µM | 47.9 µM | > 100 µM | 18.8 µM | 42.9 µM | 34.8 µM | > 100 µM
5 | CC1(C)C(=S)C(C)(C)C1=S |  | > 100 µM |  | > 100 µM |  | > 100 µM |  | > 100 µM |  | > 100 µM |  | > 100 µM |  |  |  | > 100 µM |  | > 100 µM |  | > 100 µM
6 | OC(COc1cccc2ccccc12)CN1CCN(c2ccccc2)CC1 (centres undefined) | 16.2 µM | 30.6 µM | 16 µM | 30.1 µM | 15.3 µM | 31.4 µM | 17.3 µM | 34.7 µM | 15.8 µM | 30.7 µM | 17 µM | 31.6 µM | 12.6 µM | 26.6 µM | 15.4 µM | 32.3 µM | 15 µM | 30 µM | 17.7 µM | 31.9 µM
7 | CCOC(=O)C(=O)N=Nc1nc2c(O)c3ccccc3c(O)c2s1 |  | 6.74 µM |  | 3.75 µM |  | 3.48 µM |  | 35.8 µM |  | 28.9 µM |  | 6.38 µM |  | 12.3 µM |  | 19.4 µM |  | 35 µM |  | 31.6 µM

— PubChem BioAssay (NCI)
